Active and inactive are the calls of the source. The rule behind the calls is not given here.
What was measured:
[1] = Selectivity index, ratio IC50 for cytotoxicity against human LO2 cells assessed as reduction in cell viability after 72 hrs by MTT assay to IC50 for anticancer activity against human HCT116 cells assessed as reduction in cell viability after 72 hrs by MTT assay; type: toxicity, cell-based; settings: LO2 cells versus HCT116 cells, read-out: Ratio IC50
4T1 [2] = assay: Reversal of immunosuppression against mouse 4T1 cells implanted in BALB/c mouse assessed as reduction in tumor volume at 2 mg/kg administered intratumorally every 2 days for 2 weeks measured after 14 days; type: functional
[3] = Selectivity index, ratio IC50 for cytotoxicity against human HBMEC cells assessed as reduction in cell viability after 72 hrs by MTT assay to IC50 for anticancer activity against mouse 4T1 cells assessed as reduction in cell viability after 72 hrs by MTT assay
MCF7 [4] = assay: Induction of metabolic reversal from aerobic glycolysis to oxidative phosphorylation in human MCF7 cells assessed as […] at 2 uM pretreated for 3 hrs followed by oligomycin A addition after 25 mins followed by subsequent addition of FCCP after 50 mins followed by antimycin/rotenone addition after 80 mins by seahorse XF24 extracellular flux analyzer assay; type: functional, cell-based
MCF7 [5] = assay: Synergistic anticancer activity against human MCF7 cells overexpressing assessed as combination index after 72 hrs by MTT assay; type: functional
[6] = Selectivity index, ratio IC50 for cytotoxicity against human HBMEC cells assessed as reduction in cell viability after 72 hrs by MTT assay to IC50 for anticancer activity against human A375 cells assessed as reduction in cell viability after 72 hrs by MTT assay
MCF7 [7] = assay: Induction of ferroptosis in human MCF7 cells assessed as cell death at 2 uM pretreated with antioxidant vitamin E followed by compound treatment by MTT assay; type: functional, cell-based
[8] = Selectivity index, ratio IC50 for cytotoxicity against human LO2 cells assessed as reduction in cell viability after 72 hrs by MTT assay to IC50 for anticancer activity against human A375 cells assessed as reduction in cell viability after 72 hrs by MTT assay; type: toxicity, cell-based; settings: LO2 cells versus A375 cells, read-out: Ratio IC50
4T1 [9] = assay: Induction of M2-TAM polarization in mouse 4T1 cells assessed as decrease in MRC1 protein level at 2 uM after 48 hrs by Western blot analysis relative to control; type: functional
[10] = Toxicity in BALB/c nude mouse xenografted with human MCF7 cells assessed as effect on spleen at 2 mg/kg, iv administered every 2 days for 2 weeks measured after 14 days by hematoxylin and eosin staining based histopathological analysis; type: organism-based; settings: in vivo, 336 h
[11] = target: [Pyruvate dehydrogenase (acetyl-transferring)] kinase isozyme 1, mitochondrial (Homo sapiens) (UniProt Q15118); assay: Inhibition of PDK1 (unknown origin) expressed in human MCF7 cells using PDK tide as substrate measured after 90 mins in presence of ATP by ADP-Glo luminescent kinase assay
A-375 = assay: Synergistic anticancer activity against human A375 cells expressing assessed as combination index after 72 hrs by MTT assay; type: functional
Mus musculus [12] = assay: Modulation of tumor immunosuppressive activity in BALB/c mouse xenografted with mouse 4T1 cells assessed as increase in IFNgamma expression in tumor administered intratumorally every other day for 14 days measured at 2 days post-last dose by ELISA; type: functional, organism-based
4T1 [13] = assay: Inhibition of glycolysis in mouse 4T1 cells expressing PDK assessed as reduction in intracellular lactate level at 2 uM after 6 hrs by microplate reader assay; type: functional, cell-based
MCF7 [14] = assay: Induction of ferroptosis in human MCF7 cells assessed as cell death at 2 uM pretreated with ferroptosis inhibitor ferrostatin-1 followed by compound treatment by MTT assay; type: functional, cell-based
4T1 [15] = assay: Induction of M2-TAM polarization in mouse 4T1 cells assessed as decrease in Arg1 mRNA expression at 2 uM after 48 hrs by Western blot analysis relative to control; type: functional
MCF7 [16] = assay: Induction of metabolic reversal from aerobic glycolysis to oxidative phosphorylation in human MCF7 cells assessed as decrease in oxygen consumption rate at 2 uM pretreated for 6 hrs followed by oligomycin A addition after 25 mins followed by subsequent addition of FCCP after 50 mins followed by antimycin/rotenone addition after 80 mins by seahorse XF24 extracellular flux analyzer assay; type: functional, cell-based
[17] = Selectivity index, ratio IC50 for cytotoxicity against human HBMEC cells assessed as reduction in cell viability after 72 hrs by MTT assay to IC50 for anticancer activity against human MCF7 cells assessed as reduction in cell viability after 72 hrs by MTT assay
Mus musculus [18] = assay: Modulation of tumor immunosuppressive activity in BALB/c mouse xenografted with mouse 4T1 cells assessed as decrease in IL10 expression in tumor administered intratumorally every other day for 14 days measured at 2 days post-last dose by ELISA; type: functional, organism-based
[19] = Cytotoxicity against human HBMEC cells assessed as combination index after 72 hrs by MTT assay; type: cell-based
[20] = Toxicity in BALB/c nude mouse xenografted with human MCF7 cells assessed as effect on AST level in blood at 2 mg/kg, iv administered every 2 days for 2 weeks measured after 14 days; type: organism-based; settings: in vivo, 336 h
[21] = Toxicity in BALB/c nude mouse xenografted with human MCF7 cells assessed as effect on liver at 2 mg/kg, iv administered every 2 days for 2 weeks measured after 14 days by hematoxylin and eosin staining based histopathological analysis; type: organism-based; settings: in vivo, 336 h
[22] = Selectivity index, ratio IC50 for cytotoxicity against human LO2 cells assessed as reduction in cell viability after 72 hrs by MTT assay to IC50 for anticancer activity against human MCF7 cells assessed as reduction in cell viability after 72 hrs by MTT assay; type: toxicity, cell-based; settings: LO2 cells versus MCF7 cells, read-out: Ratio IC50
HCT-116 [23] = assay: Anticancer activity against human HCT116 cells expressing PDK assessed as reduction in cell viability after 72 hrs by MTT assay; type: functional, cell-based; settings: HCT-116, 72 h
MCF7 [24] = assay: Downregulation of PDK expression in human MCF7 cells after 48 hrs by Western blot analysis; type: functional, cell-based
HCT-116 [25] = assay: Synergistic anticancer activity against human HCT116 cells expressing assessed as combination index after 72 hrs by MTT assay; type: functional
[26] = Toxicity in BALB/c nude mouse xenografted with human MCF7 cells assessed as effect on ALT level in blood at 2 mg/kg, iv administered every 2 days for 2 weeks measured after 14 days; type: organism-based; settings: in vivo, 336 h
MCF7 [27] = assay: Inhibition of glycolysis in human MCF7 cells assessed as reduction in intracellular lactate level at 2 uM after 6 hrs by microplate reader assay; type: functional, cell-based
MCF7 [28] = assay: Inhibition of glycolysis in human MCF7 cells assessed as reduction in extracellular lactate level at 2 uM after 6 hrs by microplate reader assay; type: functional, cell-based
4T1 [29] = assay: Reversal of immunosuppression against mouse 4T1 cells implanted in BALB/c mouse assessed as growth inhibition of primary tumor at 2 mg/kg administered intratumorally every 2 days for 2 weeks measured after 14 days; type: functional, organism-based
MCF7 [30] = assay: Induction of mitochondrial dysfunction in human MCF7 cells assessed as cell population with intact mitochondrial membrane potential at 2 uM after 24 hrs by JC1 staining-based FACScalibur flow cytometry analysis (reference value: 97%); type: functional
[31] = Cytotoxicity against human HBMEC cells assessed as reduction in cell viability after 72 hrs by MTT assay; type: cell-based

CC1(C)CC[C@]2(C(=O)O)CC[C@]3(C)C(=CC[C@@H]4[C@@]5(C)CC[C@H](O[C@@H]6O[C@H](CO[C@@H]7OC[C@H](O)[C@H](O)[C@H]7O)[C@@H](O)[C@H](O)[C@H]6NC(=O)C(Cl)Cl)C(C)(C)[C@@H]5CC[C@]43C)[C@@H]2C1
selectivity ratio at 72 h [1]: 12.7 | Activity (4T1 [2]): <100 mm3 | Ratio IC50 [3]: 29.16 | Activity (MCF7 [4]): inactive | CI (MCF7 [5]): 0.03 | Ratio IC50 [6]: 10.11 | Activity (MCF7 [7]): inactive | selectivity ratio at 72 h [8]: 14.1 | fold change (FC) (4T1 [9]): 3.4 | Activity [10]: Non-Toxic | inhibition [11]: Active | CI (A-375): 0.7 | Activity (Mus musculus [12]): Active | inhibition (4T1 [13]): Active | Activity (MCF7 [14]): inactive | fold change (FC) (4T1 [15]): 2.1 | Activity (MCF7 [16]): Active | Ratio IC50 [17]: 88.83 | Activity (Mus musculus [18]): Active | CI [19]: 1.41 | Activity [20]: Non-Toxic | Activity [21]: Non-Toxic | selectivity ratio at 72 h [22]: 124 | IC50 (HCT-116 [23]): 3.87 µM | Activity (MCF7 [24]): Dose-dependent effect | CI (HCT-116 [25]): 0.22 | Activity [26]: Non-Toxic | inhibition (MCF7 [27]): Active | inhibition (MCF7 [28]): Active | growth inhibition (GI) (4T1 [29]): Active | Activity (MCF7 [30]): 53.38% | IC50 [31]: 38.2 µM
